Assay results taken from patent publication US20260317314A1, “NITROGEN-CONTAINING HETEROCYCLIC COMPOUND AND USE THEREOF” (JIANGSU DEYUAN PHARMACEUTICAL CO.,LTD., priority 2023, published 2026).

Experiments:
[1] = In vivo pharmacokinetic study in cynomolgus monkeys; parameters: species or system cynomolgus monkey; conditions: male cynomolgus monkeys
[2] = In vivo pharmacokinetics study in rats; parameters: species or system SD rat; conditions: male SD rats, oral 2 mg/kg
plasma protein [3] = experiment: Plasma protein binding rate test, cynomolgus monkey (equilibrium dialysis); format: in vitro ADME; conditions: 37° C., 4 hours
From the text: (§1) The sample was thoroughly mixed.

plasma protein [4] = experiment: Plasma protein binding rate test, SD rat (equilibrium dialysis); format: in vitro ADME; conditions: 37° C., 4 hours
From the text: as §1

plasma protein [5] = experiment: Plasma protein binding rate test, human (equilibrium dialysis); format: in vitro ADME; conditions: 37° C., 4 hours
From the text: as §1

[6] = Plasma protein binding rate test, SD rat (equilibrium dialysis); format: in vitro ADME; conditions: 37° C., read-out: Plasma protein binding rate (%) in SD rats (converted)
From the text: as §1

MDR1-MDCKII cells = experiment: Permeability test in MDR1-MDCKII monolayer cell model; format: in vitro ADME; conditions: 2 μM, pH 7.40, 2.5 hours, 37±1° C.
Method: Experimental objective: The permeability and efflux ratio of the compound of the present disclosure were determined using the MDR1-MDCKII monolayer cell model to assess its membrane permeability and potential for P-gp-mediated efflux transport.
Experimental protocol: MDR1-MDCKII cells (obtained from the Netherlands Cancer Institute) were seeded in 96-well plates (obtained from Corning) at a cell density of 3.33×10^5 cells/mL and cultured for 4 to 7 days to form confluent cell monolayers. Hank's balanced salt solution containing 10 mM HEPES (pH 7.40) was used as the transport buffer. The test compound was evaluated for bidirectional transport at a concentration of 2 μM, with the DMSO concentration in the incubation system maintained below 1%. After adding the samples, the cell plate was incubated at 37±1° C., 5% CO2, and saturated humidity for 2.5 hours. All samples were quantitatively analyzed using the LC-MS/MS method. The apparent permeability coefficient (Papp, cm/s) and efflux ratio (ER) were calculated using the following formula. Apparent permeability coefficient (Papp, cm/s) was calculated using the following formula: Papp=(dCr/dt)×Vr/(A×C0). Herein, dCr/dt represents the cumulative concentration of the compound at the receiving end per unit time (μM/s); Vr is the volume of the solution at the receiving end (with solution volumes at the apical and basolateral ends being 0.075 mL and 0.250 mL, respectively); A is the relative surface area of the cell monolayer (0.143 cm^2); C0 is the initial concentration of the test substance at the dosing end (μM) or the peak area ratio of the reference substance. The efflux ratio was calculated using the following formula: ER=Papp(BA)/Papp(AB).

[7] = In vitro liver microsome metabolic stability study; format: in vitro ADME; conditions: human liver microsomes 0.5 mg/mL, compound 1 μM, 37° C., up to 60 minutes
Method: Stock solution: 10 mM in DMSO.
Only 54 μL of microsomal working solution, 6 μL of NADPH regeneration system working solution, and 180 μL of stop solution were added to the blank plate.
LC-MS/MS analysis was performed.

## CCC(=O)N[C@@H]1CCCc2c(-c3cc4c(s3)N(C)C(=O)CC4)cncc21 (single isomer, unassigned) [Compound 017]
[1]; oral 1 mg/kg
  T1/2: 5.30 h
[1]; oral 1 mg/kg, plasma
  AUC0-24 h: 7.292 µM·h
[2]
  T1/2: 1.34 h
[2]; plasma
  AUC0-24 h: 8.129 µM·h
Plasma protein [3]
  Plasma protein binding rate (%) in cynomolgus monkeys: 78.1%
Plasma protein [4]
  Plasma protein binding rate (%) in SD rats: 94.9%
Plasma protein [5]
  Human plasma protein binding rate (%): 82.7%

## CCC(=O)N[C@@H]1CCCc2c(-c3cc(F)c4c(ccc(=O)n4C)c3)cncc21 (single isomer, unassigned) [Compound 018]
[1]; oral 1 mg/kg
  T1/2: 5.35 h
[1]; oral 1 mg/kg, plasma
  AUC0-24 h: 7.586 µM·h
Plasma protein [3]
  Plasma protein binding rate (%) in cynomolgus monkeys: 79.5%
[6]
  fraction unbound at 4 h: 0.08
MDR1-MDCKII cells
  Apparent permeability coefficient (Papp (AB)): 24.6 10^-6 cm/s
Plasma protein [5]
  Human plasma protein binding rate (%): 80.9%
[7]
  Intrinsic hepatic clearance CLint(liver): <8.6 mL/min/kg

## CCC(=O)NC1CCCc2c(-c3cc4ccc(=O)n(C)c4cc3F)cncc21 (single isomer, unassigned) [Compound 019]
[1]; oral 3 mg/kg
  F: 113%
  T1/2: 4.65 h
[1]; oral 3 mg/kg, plasma
  AUC0-24 h: 23.864 µM·h
  Cmax: 3.79 µM
Plasma protein [3]
  Plasma protein binding rate (%) in cynomolgus monkeys: 75.2%
Plasma protein [4]
  Plasma protein binding rate (%) in SD rats: 87.1%
Plasma protein [5]
  Human plasma protein binding rate (%): 76.2%

## CCC(=O)N[C@H]1CCOc2c(-c3ccc4c(ccc(=O)n4C)c3)cncc21 (single isomer, unassigned) [Compound 044]
Plasma protein [3]
  Plasma protein binding rate (%) in cynomolgus monkeys: 66.4%
MDR1-MDCKII cells
  Apparent permeability coefficient (Papp (AB)): 11.0 10^-6 cm/s
Plasma protein [5]
  Human plasma protein binding rate (%): 70.5%
